Measured values as given in US20250177351A1, “ISOINDOLINE COMPOSITIONS AND METHODS FOR TREATING NEURODEGENERATIVE DISEASE” (Cognition Therapeutics, Inc., priority 2022, published 2025).
“Also recorded” adds a separate entry of the source. Marks after values point to notes of the source that are not given here.

Columns and labels:
[1] = Phase 1b/2a clinical trial (COG0102): safety, tolerability, exploratory cognitive outcomes; type: in vivo, human
Experimental: Safety and pharmacokinetics were primary objectives of the study, with changes in molecular biomarkers and cognitive outcomes identified as an exploratory objective.
Plasma and CSF protein expression were measured by LC/MSMS in samples drawn prior to dosing (Day 0) and at end of dosing (Day 28) and were compared within each patient and between dosing groups.
COG0102 clinical trial: This trial (ClinicalTrials.gov NCT02907567) was a randomized, double-blind, placebo-controlled clinical trial in mild to moderate Alzheimer's patients (MMSE 18-26) (See FIG. 1 for clinical trial design). The trial was conducted at six sites in Australia. Patients were randomized into placebo (n=5) or CT1812-treated groups: 90 mg (n=4), 280 mg (n=5) or 560 mg (n=5) and treated once daily for 28 days. Clinical chemistry was done at Sydpath (Sydney, AU). Pharmacokinetics were done at CPR Pharma Services (Adelaide, AU). Cerebrospinal fluid samples were taken at screening and day 21-28 of treatment and aliquoted. Plasma samples were taken at screening or Day 1 (one sample) and day 14-28, then spun down to separate plasma and aliquoted. One set of CSF samples was analyzed for Alzheimer's disease biomarkers; protein measurements (Aβ42, Aβ40, total tau, tau phosphorylated at threonine 181 (phosphorylated tau), NFL and neurogranin) were performed using commercially available ELISA assays from Fujirebio according to the manufacturer's instructions (INNOTEST β-AMYLOID(1-42), INNOTEST β-AMYLOID(1-40), INNOTEST hTau Ag, INNOTEST PHOSPHO-TAU(181P), Uman Diagnostics NFL assay). Neurogranin was measured with a sandwich ELISA method using antibodies Ng2 and Ng22 developed at the University of Gotteborg (Kvartsberg et al. 2015). Identical aliquots of CSF, and plasma were analyzed for protein expression changes via LC/MSMS at Caprion (see below).

[2] = Phase 1 multiple ascending dose (MAD) study: plasma pharmacokinetics; type: in vivo, human; parameters: CLss/F: unit not given here; details: for CLss/F / t1/2: MAD
Experimental: A Phase 1, two-part single and multiple ascending dose study was conducted in 7 and 4 cohorts of healthy human subjects respectively. […] In Part B, subjects were administered 280, 560, and 840 mg once daily for 14 days (8:2 A:P per cohort). An elderly cohort, age 65-75, was dosed at 560 mg once daily for 14 days (7:2 A:P). […] Cognitive testing was performed in the healthy elderly cohort at baseline and at Day 14 of treatment.
In Part B, healthy young subjects in each cohort received the same dose once daily for 14 days after overnight fasting. Cohort dosing started at 280 mg, followed by 560 mg and 840 mg in subsequent cohorts. In each cohort, eight subjects received drug and two received placebo. A fourth cohort of healthy elderly subjects (≥65 years old) received a 560 mg dose vs. placebo daily for 14 days (seven active, two placebo).
Subjects were dosed in the morning with 240 mL of water after an 8-hour fast, and remained in a semi-reclined position for 1 hour and fasting for 2 hours post-administration, except for the fed cohort in Part A. Subjects in each MAD cohort were confined to the clinical facility from check-in on Day 0 until the pharmacokinetic sample was collected on Day 16, 48 hours after administration of the last dose on Day 14. Subjects returned to the clinical facility for follow-up visits on Days 24 and 35.
In Part A, blood draws for assessment of PK parameters occurred pre-dose and at 15, 30, 45, 60, and 90 minutes post dose as well as at 2, 3, 4, 8, 12, 24, 36, and 48 hours post dose. […] In Part B, blood samples for plasma PK analysis were taken on Day 1 at pre-dose and at 2 hours post-dose, on Day 3 at pre-dose and at 15, 30 and 45 minutes and 1, 2, 3, 4, 8, 12 and 24 hours post-dose, on Days 4, 6, 8 and 10 at pre-dose and at 1.5 hours post-dose and following the final dose on Day 14 at pre-dose and 15, 30 and 45 minutes and 1, 2, 4, 8, 12, 24, 36 and 48 hours post-dose.
This was assessed by analysis of variance (ANOVA) of log-transformed Cmax, AUC0-24, AUC0-48, and/or AUC0-inf, using a model with factors for treatment (fed status or age [young vs. elderly] status) and subject within sequence. Treatment mean differences and 90% confidence intervals of the log transformed PK parameters were back-transformed, to present the geometric least squares means ratios and 90% confidence limits.

[3] = Aged transgenic mouse models of AD; type: in vivo
[4] = AD patients, 28 days, 90 mg (as in Table 3)
[5] = AD patients, 28 days, 90 mg (n = 4)
[6] = AD patients, 28 days, 280 mg (as in Table 3)
[7] = AD patients, 28 days, 280 mg (n = 5)
[8] = AD patients, 28 days, 560 mg (as in Table 3)
[9] = AD patients, 28 days, 560 mg (n = 5)
[10] = MAD 560 mg, Day 14 (steady state)
[11] = age up to 64 years, 280 mg (n = 8), Day 14, mean
[12] = age up to 64 years, 560 mg (n = 8), Day 14, mean

Which patients with lymphocytopenia ([1]; AD patients, 560 mg, 3 mild, resolved by end of study) does the source give for `CC(C)(C)Oc1cc(CCC(C)(C)N2Cc3ccc(S(C)(=O)=O)cc3C2)ccc1O` [CT1812] here?
The patients with lymphocytopenia was “Four”.

What about the “ALT in one participant” value ([1]; AD patients, 560 mg, resolved by end of study, no increase in bilirubin) of the same compound?
Its value is about 4.7 ×ULN.

And the tolerability ([1]; AD patients, 90, 280 and 560 mg, 28 days)?
The tolerability was “well tolerated with no drug-related significant adverse events reported; also recorded: generally safe and well tolerated at all doses”.

And the Headache [1, 4]?
The Headache was 1 (25%) n (%).

What about the Lymphocytopenia [1, 4] of the same compound?
Its Lymphocytopenia is 0 (0%) n (%).

What about the Nausea [1, 4] of the same compound?
Its Nausea is 0 (0%) n (%).

And the Vomiting [1, 4]?
Its Vomiting is 0 (0%) n (%).

What about the “Mild TEAEs” value [1, 5] of the same compound?
The value was 4 (100%) n (%).

And the “Moderate TEAEs” value [1, 5]?
The value was 0 (0%) n (%).

What about the SAEs [1, 5] of the same compound?
Its SAEs is 0 (0%) n (%).

What about the “Severe TEAEs” value [1, 5] of the same compound?
The value was 0 (0%) n (%).

What about the TEAEs [1, 5] of the same compound?
Its TEAEs is 3 (75%) n (%).

And the Headache [1, 6]?
Its Headache is 0 (0%) n (%).

And the Lymphocytopenia [1, 6]?
Its Lymphocytopenia is 0 (0%) n (%).

And the Nausea [1, 6]?
The Nausea was 0 (0%) n (%).

What about the Vomiting [1, 6] of the same compound?
Its Vomiting is 0 (0%) n (%).

And the “Mild TEAEs” value [1, 7]?
The value was 3 (60%) n (%).

What about the “Moderate TEAEs” value [1, 7] of the same compound?
The value was 1 (20%) n (%).

And the SAEs [1, 7]?
Its SAEs is 0 (0%) n (%).

And the “Severe TEAEs” value [1, 7]?
The value was 0 (0%) n (%).

What about the TEAEs [1, 7] of the same compound?
Its TEAEs is 4 (80%) n (%).

What about the Headache [1, 8] of the same compound?
The Headache was 2 (40%) n (%).

And the Lymphocytopenia [1, 8]?
The Lymphocytopenia was 3 (60%)* n (%).

And the Nausea [1, 8]?
Its Nausea is 2 (40%) n (%).

What about the Vomiting [1, 8] of the same compound?
The Vomiting was 2 (40%) n (%).

And the “Mild TEAEs” value [1, 9]?
The value was 5 (100%) n (%).

And the “Moderate TEAEs” value [1, 9]?
Its value is 3 (60%) n (%).

And the SAEs [1, 9]?
The SAEs was 0 (0%) n (%).

What about the “Severe TEAEs” value [1, 9] of the same compound?
The value was 0 (0%) n (%).

What about the TEAEs [1, 9] of the same compound?
Its TEAEs is 5 (100%) n (%).

What about the “AUC0-24h, aged cohort vs subjects under 64 years (geometric least-squares mean)” value ([2]; MAD 560 mg, Day 3) of the same compound?
The value was about 1.34 times.

What about the “Cmax, aged cohort vs subjects under 64 years (geometric least-squares mean)” value ([2]; MAD 560 mg, Day 3) of the same compound?
The value was “approximately 1.7 times”.

And the “AUC0-24h, aged cohort vs younger subjects” value [2, 10]?
Its value is 1.5 times.

What about the “Cmax, aged cohort vs younger subjects” value [2, 10] of the same compound?
The value was 1.6 times.

What about the “increase of Cmax and AUC with dose” value ([2]; MAD 280 to 840 mg) of the same compound?
Its value is “slightly greater than dose proportionally”.

What about the CLss/F ([2]; age at least 65 years, 560 mg (n = 7), Day 14, mean) of the same compound?
Its CLss/F is 169^‡‡.

What about the t1/2 ([2]; age at least 65 years, 560 mg, Day 3 (n = 4), over max. 24 hours post dose) of the same compound?
Its t1/2 is 8.83^†† hr.

What about the CLss/F [2, 11] of the same compound?
Its CLss/F is 387.

What about the t1/2 [2, 11] of the same compound?
Its t1/2 is 12.0 h.

What about the CLss/F [2, 12] of the same compound?
The CLss/F was 296.

And the t1/2 [2, 12]?
Its t1/2 is 12.3 h.

What about the CLss/F ([2]; age up to 64 years, dose cell prints 560 mg (n = 7), Day 14, follows 840 mg Day 3) of the same compound?
The CLss/F was 212^‡‡.

And the t1/2 ([2]; age up to 64 years, dose cell prints 560 mg (n = 7), Day 14, follows 840 mg Day 3 (n = 6))?
Its t1/2 is 8.93^§ hr.

What about the accumulation in plasma ([2]; over 14 days) of the same compound?
The accumulation in plasma was “minimal accumulation”.

What about the cognitive performance ([3]; aged transgenic mouse models of AD) of the same compound?
The cognitive performance was “restoring normal cognitive performance”.

And the “inflammatory protein expression in CSF” value ([3]; chronic treatment of aged transgenic mice, efficacious doses, LC/MSMS)?
The value was “significantly reduces”.
